Results taken from patent US7345083B2, “Hydroisoindoline tachykinin receptor antagonists” (Merck & Co., Inc., priority 2004, dated 2008).

melting point: 216.5 to 217.5 °C
Compound: C[C@@H](O[C@H]1CC[C@@H]2CN(C3=CC(=O)CC3)C[C@H]2[C@@H]1c1ccc(F)cc1)c1cc(C(F)(F)F)cc(C(F)(F)F)c1 [Example 7, 3-[(3aR,4R,5S,7aS)-5-{(1R)-1-[3,5-bis(Trifluoromethyl)phenyl]ethoxy}-4-(4-fluorophenyl)-octahydro-2H-isoindol-2-yl]cyclopent-2-en-1-one]
